In EP1902732A1, “PROPHYLACTIC/THERAPEUTIC AGENT FOR HER2-EXPRESSING CANCER” (Takeda Pharmaceutical Company Limited, priority 2005, dated 2006):

Legend:
[1] = tested on: HER2; test: Western blotting of phosphorylated HER2 in BT-474 cells; format: cell-based, human
Protocol: (§1) Human HER2-expressing human breast cancer cell line BT-474 (purchased from American Tissue Culture Collection (ATCC)) was seeded into a 24-multiwell plate (BT-474: 1.2 x 10^5 cells/well), and cultured overnight in a carbon dioxide gas incubator (5% CO2, 37°C). A 4-fold dilution series of a mitochondrial respiratory chain complex inhibiting compound (complex I: rotenone, complex III: antimycin, complex V: oligomycin: Wako Pure Chemical Industries) was added starting from a final concentration of 1 µmol/L in 5 steps while continuing culture. After 2 hours, the broth was removed, and the cells were lysed with an SDS sample buffer (200 µL). Western blotting analysis was performed as follows. Specifically, this cell lysate (8 µL) was separated by an SDS-PAGE method (gel concentration: 7.5-15%) (Analytical Biochemistry, No. 166, pp. 368-379, 1987), and transferred to a nitrocellulose membrane (BioRad). Then, an antibody specific to phosphorylated HER2 (Cell signaling technology, Code# 2244), an anti-phosphorylated Akt antibody specific to downstream antiapoptotic signal transducing molecule Akt (Cell signaling technology, Code# 9271) and an anti-phosphorylated MAPK antibody specific to downstream proliferation signal transducing molecule MAPK (Cell signaling technology, Code# 9101) were used to detect the antibody with an ECL system (Amersham) to quantify the amount of phosphorylated protein by an image analysis.
(§2) Human HER2-expressing human cancer cell line BT-474 (purchased from ATCC) was seeded into a 24-multiwell plate (1.2 x 10^5 cells/well) and cultured overnight in a carbon dioxide gas incubator (20% O2, 5% CO2, 37°C). A 3-fold dilution series of metformin that activates AMPK (The Journal of Biological Chemistry, Vol. 279, No. 42, pp. 43940-43951, 2004) was added starting from a final concentration of 15 mmol/L in 5 steps while continuing culture. Two hours later, the broth was removed and the cells were lysed with an SDS sample buffer (200 µL). This cell lysate (8 µL) was separated by an SDS-PAGE method (gel concentration: 7.5-15%) (Analytical Biochemistry, No. 166, pp. 368-379, 1987). Then, western blotting analysis was performed in the same manner as in Example 1 to quantify phosphorylated HER2, phosphorylated Akt and phosphorylated MAPK.
Human HER2-expressing human breast cancer cell line BT-474 (purchased from American Tissue Culture Collection (ATCC)) was seeded into a 24-multiwell plate (BT-474: 1.2 x 10^5 cells/well), and cultured overnight in a carbon dioxide gas incubator (5% CO2, 37°C). Mitochondrial respiratory chain complex 1-inhibiting compound rotenone (Wako Pure Chemical Industries) was added in 5 steps at final concentrations of 1, 0.333, 0.111, 0.033 and 0.011 µmol/L while continuing culture. Two hours later, the broth was removed and the cells were lysed with an SDS sample buffer (200 µL). Then, this cell lysate was used to perform western blotting analysis. Specifically, this cell lysate (8 µL) was separated by an SDS-PAGE method (gel concentration: 7.5-15%) (Analytical Biochemistry, No. 166, pp. 368-379, 1987) and transferred to a nitrocellulose membrane (BioRad). Then, an antibody specific to phosphorylated HER2 (Cell signaling technology, Code# 2244), an AMPK antibody specific to AMPK (Cell signaling technology, Code# 2535) and an anti-phosphorylated AMPK antibody specific to phosphorylated AMPK (Cell signaling technology, Code# 2532) were used to detect the antibody by chemiluminescent detection with an ECL system (Amersham) to quantify an amount of phosphorylated protein with LAS-1000 plus image analysis device (FUJIFILM).
Human HER2-expressing human breast cancer cell line BT-474 (purchased from American Tissue Culture Collection (ATCC)) was seeded into a 24-multiwell plate (BT-474: 1.2 x 10^5 cells/well) and cultured overnight in a carbon dioxide gas incubator (5% CO2, 37°C). […]

[2] = tested on: A549 non-small cell lung cancer cell; test: Viable cell count using Cell Counting Kit-F; format: cell-based, human; settings: HER2-expressing cancer, five days of culture
Protocol: (§3) BT-474 breast cancer cell, MDA-MB-453 breast cancer cell, A549 non-small cell lung cancer cell and LNCaP prostate cancer cell were used as human HER2-expressing cells while MDA-MB-231 breast cancer cell and A498 kidney cancer cell (all purchased from ATCC) were used as HER2-nonexpressing cells. Each of the cells used had been seeded into a 96-plate at 500cells/150 µL/well and cultured overnight. Each of the compounds, i.e., antimycin (final concentrations: 1, 0.1, 0.01 and 0.001 µmol/L), 2,4-dinitrophenol (final concentrations: 0.6, 0.2, 0.06 and 0.02 mmol/L), metformin (final concentrations: 25, 5, 1 and 0.2 mmol/L) and AICAR (final concentrations: 25, 5, 1 and 0.2 mmol/L) was diluted with a medium and added for 50 µL/well at a time to the final concentrations mentioned above. Following five days of culture at 37°C in 5% CO2, the cells were counted using Cell Counting Kit-F (Dojindo Laboratories).
(§4) Viable cell count using Cell Counting Kit-F was carried out by the following method according to the attached instruction. The supernatant was removed from the 96-well plate after five days of culture. Cell Counting Kit-F diluted 1000-fold with an RPMI medium (phenol red-free, serum-free) was added for 100 µL/well at a time. After 30 minutes of reaction at room temperature, fluorescence (excitation wavelength; 480 nm, fluorescent wavelength; 530 nm) was determined with a fluorescent plate reader.
(§5) From the determination results, percentage of the fluorescence level in the wells added with the compound was determined assuming that the fluorescence level in the wells without the addition of the compound (control) is 100%, and the remaining cellular quantity was determined in % with respect to that of the control.

[3] = tested on: A498 kidney cancer cell; test: Viable cell count using Cell Counting Kit-F; format: cell-based; settings: A498; HER2-nonexpressing cancer; five days of culture
Protocol: as §3, §4, §5
(§6) BT-474 breast cancer cell, MDA-MB-453 breast cancer cell and LNCaP prostate cancer cell were used as human HER2-expressing cells while MDA-MB-231 breast cancer cell and A498 kidney cancer cell (all purchased from ATCC) were used as HER2-nonexpressing cells. Each of the cells used had been seeded into a 96-well plate at 500 cells/150 µL/well and cultured overnight. Troglitazone (final concentrations: 25, 6.25 and 1.56 µmol/L) was diluted with a medium, and added for 50 µL/well at a time to the final concentrations mentioned above. Following five days of culture at 37°C in 5% CO2, the cells were counted using Cell Counting Kit-F (Dojindo Laboratories).
(§7) From the determination results, percentage of the fluorescence level in the wells added with troglitazone was determined assuming that the fluorescence level in the wells without the addition of troglitazone (control) is 100%, and the remaining cellular quantity was determined in % with respect to that of the control.

[4] = tested on: MDA-MB-231 breast cancer cell; test: Viable cell count using Cell Counting Kit-F; format: cell-based; settings: MB231; HER2-nonexpressing cancer; five days of culture
Protocol: as §3, §4, §5, §6, §7

[5] = tested on: Akt; test: Western blotting of phosphorylated Akt in BT-474 cells; format: cell-based, human; settings: Example 2, 4-fold dilution series from 1 µmol/L in 5 steps, 2 hours
Protocol: as §1, §2

[6] = tested on: MAPK; test: Western blotting of phosphorylated MAPK in BT-474 cells; format: cell-based, human; settings: Example 2, 4-fold dilution series from 1 µmol/L in 5 steps, 2 hours
Protocol: as §1, §2

[7] = Example 7, two hours, antimycin 1-0.01 nmol/L, oligomycin 100-1 ng/mL, 2,4-dinitrophenol 300-3 µmol/L

Compound | HER2 phosphorylation [1, 7] | minimum concentrations for inhibiting cell proliferation for 50% or more [2] [mmol/L] | minimum concentrations for inhibiting cell proliferation for 50% or more [3] [mmol/L] | minimum concentrations for inhibiting cell proliferation for 50% or more [4] [mmol/L] | HER2 phosphorylation ([1]; Example 2, 4-fold dilution series from 1 µmol/L in 5 steps, 2 hours) | Akt phosphorylation [5] | MAPK phosphorylation [6]
O=[N+]([O-])c1ccc(O)c([N+](=O)[O-])c1 [2,4-dinitrophenol] | decreased dose-dependently | <0.02 | 0.2 | 0.2 | – | – | –
antimycin | decreased dose-dependently | 1e-05 | >0.0001 | 1e-05 | suppression of HER2 phosphorylation was confirmed | suppressions of Akt and MAPK phosphorylations were also confirmed | suppressions of Akt and MAPK phosphorylations were also confirmed
